In PMC2820364 (The Biochemical journal, 2008):

Key:
p110α (H855E) = p110α (H855E) (Homo sapiens, UniProt P42336, H855E); assay: PI3K lipid kinase inhibition assay, p110α H855E mutant; format: biochemical; conditions: for Selectivity ratio α/β His↔Glu: IC50 ratio p110α-(H855E) / p110β-(E858H); for loss of potency at H857E-p110α relative to wild type: mutant printed as H857E
p110β (D862Q) = p110β (D862Q) (Homo sapiens, UniProt P42338, D862Q); assay: PI3K lipid kinase inhibition assay, p110β D862Q mutant; format: biochemical
p110β (D862Q), sequence (P42338 whole entry D862Q, species assumed): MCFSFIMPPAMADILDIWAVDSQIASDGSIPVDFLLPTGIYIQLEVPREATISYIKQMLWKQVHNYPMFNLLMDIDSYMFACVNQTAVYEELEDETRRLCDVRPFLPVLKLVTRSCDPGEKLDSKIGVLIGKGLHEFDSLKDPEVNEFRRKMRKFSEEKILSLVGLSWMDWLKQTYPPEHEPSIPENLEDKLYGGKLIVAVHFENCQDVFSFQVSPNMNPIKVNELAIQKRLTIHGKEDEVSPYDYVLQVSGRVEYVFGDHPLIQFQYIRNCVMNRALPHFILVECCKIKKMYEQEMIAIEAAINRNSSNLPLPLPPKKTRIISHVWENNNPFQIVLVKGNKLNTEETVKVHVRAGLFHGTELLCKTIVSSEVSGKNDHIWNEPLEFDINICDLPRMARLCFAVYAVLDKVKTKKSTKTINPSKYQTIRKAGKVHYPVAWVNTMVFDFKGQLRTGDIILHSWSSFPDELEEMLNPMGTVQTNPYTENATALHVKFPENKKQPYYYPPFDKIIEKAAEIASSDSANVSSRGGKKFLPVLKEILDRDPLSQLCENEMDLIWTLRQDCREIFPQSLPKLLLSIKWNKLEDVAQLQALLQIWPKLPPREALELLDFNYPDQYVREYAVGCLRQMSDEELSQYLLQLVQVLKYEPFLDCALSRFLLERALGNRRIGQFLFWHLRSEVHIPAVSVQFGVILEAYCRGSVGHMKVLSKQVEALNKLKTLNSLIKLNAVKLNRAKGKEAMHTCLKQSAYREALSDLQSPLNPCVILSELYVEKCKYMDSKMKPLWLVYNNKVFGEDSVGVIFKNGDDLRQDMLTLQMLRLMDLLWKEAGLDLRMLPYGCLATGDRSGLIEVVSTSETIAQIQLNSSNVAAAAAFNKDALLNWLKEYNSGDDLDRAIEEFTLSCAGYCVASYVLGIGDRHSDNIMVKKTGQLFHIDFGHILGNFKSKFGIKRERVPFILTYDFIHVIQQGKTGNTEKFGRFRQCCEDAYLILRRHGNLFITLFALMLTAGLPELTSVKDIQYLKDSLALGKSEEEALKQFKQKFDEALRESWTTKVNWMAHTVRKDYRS
p110β (D862Q), sequence (P27986 whole entry partner, species assumed): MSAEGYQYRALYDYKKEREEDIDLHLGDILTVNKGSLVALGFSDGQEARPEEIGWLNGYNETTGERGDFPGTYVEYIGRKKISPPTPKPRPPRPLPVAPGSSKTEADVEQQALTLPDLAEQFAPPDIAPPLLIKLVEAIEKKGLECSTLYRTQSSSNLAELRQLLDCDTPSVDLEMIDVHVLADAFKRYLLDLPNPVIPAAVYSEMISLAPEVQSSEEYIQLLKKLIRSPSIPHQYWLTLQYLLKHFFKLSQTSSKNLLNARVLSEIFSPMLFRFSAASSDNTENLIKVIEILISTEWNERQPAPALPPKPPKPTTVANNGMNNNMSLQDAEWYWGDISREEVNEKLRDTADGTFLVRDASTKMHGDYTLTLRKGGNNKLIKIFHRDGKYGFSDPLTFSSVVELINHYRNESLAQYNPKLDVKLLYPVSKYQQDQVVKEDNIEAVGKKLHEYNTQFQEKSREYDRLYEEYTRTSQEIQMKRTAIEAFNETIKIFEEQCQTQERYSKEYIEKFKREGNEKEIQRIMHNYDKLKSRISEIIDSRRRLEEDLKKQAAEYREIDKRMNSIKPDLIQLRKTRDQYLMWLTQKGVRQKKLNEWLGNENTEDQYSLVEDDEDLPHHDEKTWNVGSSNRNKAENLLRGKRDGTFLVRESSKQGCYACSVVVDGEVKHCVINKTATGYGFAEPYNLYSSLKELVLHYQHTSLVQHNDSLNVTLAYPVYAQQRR

p110β (E858H) = p110β (E858H) (Homo sapiens, UniProt P42338, E858H); assay: PI3K lipid kinase inhibition assay, p110β E858H mutant; format: biochemical
p110β (E858H), sequence (P42338 whole entry E858H, species assumed): as the sequence (P42338 whole entry D862Q, species assumed) above, with E858H, Q862D counted along it
p110β (E858H), sequence (P27986 whole entry partner, species assumed): as the sequence (P27986 whole entry partner, species assumed) above

p110β WT = p110β WT (Homo sapiens, UniProt P42338); assay: PI3K lipid kinase inhibition assay, wild-type p110β; format: biochemical; conditions: for selectivity for p110β relative to p110α (wild type): wild type enzymes
p110β WT, sequence (P42338 whole entry): as the sequence (P42338 whole entry D862Q, species assumed) above, with Q862D counted along it
p110β WT, sequence (P27986 whole entry partner): as the sequence (P27986 whole entry partner, species assumed) above

p110α (Q859D) = p110α (Q859D) (Homo sapiens, UniProt P42336, Q859D); assay: PI3K lipid kinase inhibition assay, p110α Q859D mutant; format: biochemical; conditions: for Selectivity ratio α/β Gln↔Asp: IC50 ratio p110α-(Q859D) / p110β-(D862Q)
p110α (Q859D), sequence (P42336 whole entry Q859D, species assumed): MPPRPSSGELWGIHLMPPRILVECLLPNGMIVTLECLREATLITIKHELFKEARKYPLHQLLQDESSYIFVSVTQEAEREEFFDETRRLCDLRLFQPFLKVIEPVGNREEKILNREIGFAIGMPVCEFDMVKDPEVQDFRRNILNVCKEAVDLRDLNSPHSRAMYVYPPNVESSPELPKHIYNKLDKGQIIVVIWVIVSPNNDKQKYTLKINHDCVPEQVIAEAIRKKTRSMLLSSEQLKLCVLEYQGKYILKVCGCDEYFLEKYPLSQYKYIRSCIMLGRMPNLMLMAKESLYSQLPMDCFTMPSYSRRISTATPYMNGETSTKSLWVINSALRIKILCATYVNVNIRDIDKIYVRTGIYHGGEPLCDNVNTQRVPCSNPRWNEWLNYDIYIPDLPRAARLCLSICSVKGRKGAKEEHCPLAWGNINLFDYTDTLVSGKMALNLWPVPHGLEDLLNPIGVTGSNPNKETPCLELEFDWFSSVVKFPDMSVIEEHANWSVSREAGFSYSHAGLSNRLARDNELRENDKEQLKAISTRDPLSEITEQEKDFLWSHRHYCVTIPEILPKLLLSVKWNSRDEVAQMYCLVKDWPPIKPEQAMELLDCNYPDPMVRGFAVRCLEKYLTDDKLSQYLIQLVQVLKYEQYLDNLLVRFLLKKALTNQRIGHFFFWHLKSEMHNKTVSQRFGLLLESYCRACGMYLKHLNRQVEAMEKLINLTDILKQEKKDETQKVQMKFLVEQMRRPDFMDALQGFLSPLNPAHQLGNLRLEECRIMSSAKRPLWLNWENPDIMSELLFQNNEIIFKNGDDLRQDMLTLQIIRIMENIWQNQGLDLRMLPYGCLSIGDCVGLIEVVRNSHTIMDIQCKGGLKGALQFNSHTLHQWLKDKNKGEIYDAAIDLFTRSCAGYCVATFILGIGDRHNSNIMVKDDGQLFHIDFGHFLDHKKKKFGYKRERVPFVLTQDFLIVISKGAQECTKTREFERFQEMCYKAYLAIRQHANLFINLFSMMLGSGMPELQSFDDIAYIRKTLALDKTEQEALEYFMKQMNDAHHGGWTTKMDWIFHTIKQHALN
p110α (Q859D), sequence (P27986 whole entry partner, species assumed): as the sequence (P27986 whole entry partner, species assumed) above

p110α WT = p110α WT (Homo sapiens, UniProt P42336); assay: PI3K lipid kinase inhibition assay, wild-type p110α; format: biochemical; conditions: IC50 ratio p110α WT / p110β WT
p110α WT, sequence (P42336 whole entry): as the sequence (P42336 whole entry Q859D, species assumed) above, with D859Q counted along it
p110α WT, sequence (P27986 whole entry partner): as the sequence (P27986 whole entry partner, species assumed) above

p110β = conditions: read-out: IC50 against p110β; 10μM ATP; ref Knight et al. 2006; cited from earlier work

p110α (H855E), sequence (P42336 whole entry H855E, species assumed): as the sequence (P42336 whole entry Q859D, species assumed) above, with H855E, D859Q counted along it
p110α (H855E), sequence (P27986 whole entry partner, species assumed): as the sequence (P27986 whole entry partner, species assumed) above

O=c1cc(N2CCOCC2)oc2c(OCc3ccccc3)cccc12 [TGX102]
Selectivity ratio α/β His↔Glu (p110α (H855E)): 17.3 | loss of potency at H857E-p110α relative to wild type (p110α (H855E)): 3 fold | effect of p110β D862Q mutation on inhibition (in words) (p110β (D862Q); compared with wild type p110β): indistinguishable from the wild type | effect of p110β E858H mutation on inhibition (in words) (p110β (E858H); compared with wild type p110β): indistinguishable from the wild type | selectivity for p110β relative to p110α (wild type) (p110β WT): approximately 4 fold | loss of potency at Q859D-p110α relative to wild type (p110α (Q859D)): 3 fold | Selectivity ratio α/β Gln↔Asp (p110α (Q859D)): 12.65 | Selectivity ratio α/β (wt) (p110α WT): 4.30

TGX286
Selectivity ratio α/β His↔Glu (p110α (H855E)): 106.4 | reduction in potency at p110β-D862Q relative to wild type (p110β (D862Q)): approximately 2 fold | reduction in potency at p110β-E858H relative to wild type (p110β (E858H)): approximately 2 fold | difference between literature IC50 and IC50 of this study at p110β (p110β WT; 0.12μM (Knight et al. 2006) v. 7nM): 17 fold | selectivity for p110β relative to p110α (wild type) (p110β WT): over 140 fold | Selectivity ratio α/β Gln↔Asp (p110α (Q859D)): 126.2 | IC50 (p110β): 120 nM | Selectivity ratio α/β (wt) (p110α WT): 142.0

O=c1cc(N2CCOCC2)oc2c(OCc3cccnc3)cccc12 [TGX132]
Selectivity ratio α/β His↔Glu (p110α (H855E)): 3.56 | loss of potency at H857E-p110α relative to wild type (p110α (H855E)): 5-6 fold | increase in potency at p110β-D862Q relative to wild type (p110β (D862Q)): approximately 2 fold | increase in potency at p110β-E858H relative to wild type (p110β (E858H)): approximately 2 fold | loss of potency at Q859D-p110α relative to wild type (p110α (Q859D)): 5-6 fold | Selectivity ratio α/β Gln↔Asp (p110α (Q859D)): 4.59 | Selectivity ratio α/β (wt) (p110α WT): 0.34
